Literature values, collected in patent US20120201867A1, “DRUG DELIVERY FROM EMBOLIC AGENTS” (priority 2004, published 2012).
Counter-ions that a name gives are not always drawn.

Legend:
[1] = tested on: topoisomerase I purified from human and rodent tumour cell lines; conditions: SN-38 versus irinotecan
CC531-lacZ cells = conditions: Saenger et al.

SMILES | potency relative to irinotecan as an inhibitor of topoisomerase I [1] | complete remission, share of rats (CC531-lacZ cells) [%] | reduction of the mean tumour cell load (CC531-lacZ cells) [%]
CCc1c2c(nc3ccc(O)cc13)-c1cc3c(c(=O)n1C2)COC(=O)[C@]3(O)CC [SN-38] | approximately 1000 times | – | –
CCc1c2c(nc3ccc(OC(=O)N4CCC(N5CCCCC5)CC4)cc13)-c1cc3c(c(=O)n1C2)COC(=O)[C@]3(O)CC [irinotecan, Irinotecan hydrochloride trihydrate] | – | 44 | 66
